Calls of active or inactive are those of the source.
Tests used:
[1] = reduction of Shn3 3'UTR-driven luciferase in osteoblasts – cell-based, Clone20 osteoblasts, firefly luciferase, cherry-picked, dose response (AID 624132); assay type: functional;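 also: firefly luciferase luminescence from reporter carrying the Shn3 3'UTR in osteoblasts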
[2] = loss of viability in HepG2 cells – cell-based, CellTiter-Glo, cherry-picked, cytotoxicity control for Shn3 inhibitor project, dose response (AID 624134); assay type: functional
[3] = non-specific 3'UTR reporter inhibition in Clone20-Shn3RL – cell-based, Renilla luciferase, cherry-picked, counter-screen for Shn3 inhibitor project, dose response (AID 624133); assay type: functional
Galanin receptor type 3 = target: T1, Galanin receptor type 3 (Homo sapiens, UniProt O60755); experiment: Fluorescence-based cell-based primary high throughput dose response assay to identify antagonists of the Galanin Receptor 3 (GalR3).; assay type: functional
T1 sequence (O60755 whole entry): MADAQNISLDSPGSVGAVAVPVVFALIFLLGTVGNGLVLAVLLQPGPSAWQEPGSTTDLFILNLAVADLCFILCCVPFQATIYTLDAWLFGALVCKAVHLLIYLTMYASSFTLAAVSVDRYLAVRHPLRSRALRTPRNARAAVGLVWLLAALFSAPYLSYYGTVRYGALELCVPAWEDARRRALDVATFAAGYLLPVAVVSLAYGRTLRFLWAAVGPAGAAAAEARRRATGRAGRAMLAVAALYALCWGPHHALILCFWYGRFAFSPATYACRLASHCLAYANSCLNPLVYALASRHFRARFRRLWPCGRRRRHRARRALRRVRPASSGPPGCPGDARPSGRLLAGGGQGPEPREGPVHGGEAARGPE

cells = assay type: functional, cell-based; conditions: HEK-CNG
[4] = target: COUP transcription factor 2 (Homo sapiens, UniProt P24468); experiment: Luminescence-based cell-based high throughput dose response assay to identify inhibitors of COUP-TFII (NR2F2).; assay type: functional;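 also: HEK293 cells transiently cotransfected with COUP-TFII expression vector and reporter; luciferase reporter luminescence driven by COUP-TFII from the pX2-168 reporter plasmid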
COUP transcription factor 2, sequence (P24468 whole entry): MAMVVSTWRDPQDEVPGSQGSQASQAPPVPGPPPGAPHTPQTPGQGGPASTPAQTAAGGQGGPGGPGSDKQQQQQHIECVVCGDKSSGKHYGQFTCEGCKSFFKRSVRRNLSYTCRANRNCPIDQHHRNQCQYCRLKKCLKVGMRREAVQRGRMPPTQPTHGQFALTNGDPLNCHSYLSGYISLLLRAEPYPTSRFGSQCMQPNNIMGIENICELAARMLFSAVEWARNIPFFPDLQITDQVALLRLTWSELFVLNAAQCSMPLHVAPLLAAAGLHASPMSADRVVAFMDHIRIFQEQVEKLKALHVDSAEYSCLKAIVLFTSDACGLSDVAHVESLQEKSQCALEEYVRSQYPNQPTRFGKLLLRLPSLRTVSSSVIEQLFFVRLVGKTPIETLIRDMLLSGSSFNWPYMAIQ

Paired box protein Pax-8 = Paired box protein Pax-8 (Homo sapiens, UniProt Q06710); experiment: PAX8 transcriptional activity inhibition in RMG-I – RMG-I cells, luciferase, cherry-pick, dose response (AID 687027); assay type: functional, cell-based;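 also: luciferase reporter driven by Pax8 target thyroperoxidase promoter measured by SteadyGlo luminescence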
Paired box protein Pax-8, sequence (Q06710 whole entry): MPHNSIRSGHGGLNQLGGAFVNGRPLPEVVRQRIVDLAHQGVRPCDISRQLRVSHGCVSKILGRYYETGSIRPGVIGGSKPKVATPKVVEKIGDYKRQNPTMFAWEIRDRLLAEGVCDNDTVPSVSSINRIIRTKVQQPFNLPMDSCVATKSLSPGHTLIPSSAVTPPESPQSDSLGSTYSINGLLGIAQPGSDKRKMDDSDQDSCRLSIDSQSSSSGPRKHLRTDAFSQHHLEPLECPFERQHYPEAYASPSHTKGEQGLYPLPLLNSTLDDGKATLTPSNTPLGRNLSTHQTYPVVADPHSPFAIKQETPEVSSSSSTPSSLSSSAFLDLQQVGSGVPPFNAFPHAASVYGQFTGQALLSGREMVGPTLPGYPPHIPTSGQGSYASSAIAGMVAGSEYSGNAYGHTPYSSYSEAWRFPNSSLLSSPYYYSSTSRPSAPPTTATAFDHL

[5] = IGROV1 cell killing – plate reader, dry powder samples, PAX8 inhibitor project, dose response (AID 743043); assay type: functional, cell-based; conditions: IGROV-1
[6] = OVCAR8 cell viability loss – plate reader, dry powder samples, PAX8 project, dose response (AID 743197); assay type: functional, cell-based; conditions: OVCAR-8
[7] = target: 1-phosphatidylinositol 4,5-bisphosphate phosphodiesterase gamma-1 (Homo sapiens, UniProt P19174); experiment: Counterscreen for inhibitors of phospholipase C isozymes (PLC-B3): Fluorescence-based biochemical high throughput dose response assay to identify inhibitors of phospholipase C isozymes (PLC-gamma1).
1-phosphatidylinositol 4,5-bisphosphate phosphodiesterase gamma-1, sequence (P19174 whole entry): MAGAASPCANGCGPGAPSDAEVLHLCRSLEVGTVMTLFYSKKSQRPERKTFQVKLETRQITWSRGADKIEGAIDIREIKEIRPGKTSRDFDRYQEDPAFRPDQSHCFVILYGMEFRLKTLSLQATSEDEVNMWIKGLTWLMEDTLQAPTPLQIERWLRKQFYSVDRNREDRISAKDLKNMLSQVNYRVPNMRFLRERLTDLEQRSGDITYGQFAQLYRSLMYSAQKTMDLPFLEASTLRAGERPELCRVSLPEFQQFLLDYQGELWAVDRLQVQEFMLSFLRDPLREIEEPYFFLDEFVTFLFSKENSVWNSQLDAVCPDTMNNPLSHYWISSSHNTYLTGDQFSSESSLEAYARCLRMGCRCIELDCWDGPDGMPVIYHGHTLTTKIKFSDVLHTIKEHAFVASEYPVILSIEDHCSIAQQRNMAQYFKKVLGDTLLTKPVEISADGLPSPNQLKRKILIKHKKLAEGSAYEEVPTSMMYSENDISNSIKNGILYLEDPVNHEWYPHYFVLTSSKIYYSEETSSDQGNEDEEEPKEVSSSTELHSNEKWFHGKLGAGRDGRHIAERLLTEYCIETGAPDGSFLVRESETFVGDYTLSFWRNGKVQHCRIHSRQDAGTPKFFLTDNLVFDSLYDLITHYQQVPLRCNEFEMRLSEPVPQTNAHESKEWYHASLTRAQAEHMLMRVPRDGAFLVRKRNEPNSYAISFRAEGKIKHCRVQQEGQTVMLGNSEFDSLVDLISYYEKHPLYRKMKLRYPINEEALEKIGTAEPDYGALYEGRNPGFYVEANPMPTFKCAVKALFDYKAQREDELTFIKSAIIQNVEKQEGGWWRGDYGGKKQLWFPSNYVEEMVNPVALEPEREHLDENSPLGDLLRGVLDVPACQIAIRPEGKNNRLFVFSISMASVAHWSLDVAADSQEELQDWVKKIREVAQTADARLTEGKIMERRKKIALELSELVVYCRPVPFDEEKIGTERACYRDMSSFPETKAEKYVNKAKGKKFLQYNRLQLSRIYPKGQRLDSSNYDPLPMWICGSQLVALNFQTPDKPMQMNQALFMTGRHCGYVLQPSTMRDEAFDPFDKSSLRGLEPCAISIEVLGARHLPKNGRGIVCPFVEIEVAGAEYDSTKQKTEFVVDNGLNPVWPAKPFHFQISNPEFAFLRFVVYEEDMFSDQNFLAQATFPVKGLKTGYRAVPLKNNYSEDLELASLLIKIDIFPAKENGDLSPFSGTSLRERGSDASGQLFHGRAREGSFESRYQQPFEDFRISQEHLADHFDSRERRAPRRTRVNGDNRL

[8] = target: 1-phosphatidylinositol 4,5-bisphosphate phosphodiesterase beta-3 (Homo sapiens, UniProt Q01970); experiment: Fluorescence-based biochemical high throughput dose response assay to identify inhibitors of phospholipase C isozymes (PLC-B3).
1-phosphatidylinositol 4,5-bisphosphate phosphodiesterase beta-3, sequence (Q01970 whole entry): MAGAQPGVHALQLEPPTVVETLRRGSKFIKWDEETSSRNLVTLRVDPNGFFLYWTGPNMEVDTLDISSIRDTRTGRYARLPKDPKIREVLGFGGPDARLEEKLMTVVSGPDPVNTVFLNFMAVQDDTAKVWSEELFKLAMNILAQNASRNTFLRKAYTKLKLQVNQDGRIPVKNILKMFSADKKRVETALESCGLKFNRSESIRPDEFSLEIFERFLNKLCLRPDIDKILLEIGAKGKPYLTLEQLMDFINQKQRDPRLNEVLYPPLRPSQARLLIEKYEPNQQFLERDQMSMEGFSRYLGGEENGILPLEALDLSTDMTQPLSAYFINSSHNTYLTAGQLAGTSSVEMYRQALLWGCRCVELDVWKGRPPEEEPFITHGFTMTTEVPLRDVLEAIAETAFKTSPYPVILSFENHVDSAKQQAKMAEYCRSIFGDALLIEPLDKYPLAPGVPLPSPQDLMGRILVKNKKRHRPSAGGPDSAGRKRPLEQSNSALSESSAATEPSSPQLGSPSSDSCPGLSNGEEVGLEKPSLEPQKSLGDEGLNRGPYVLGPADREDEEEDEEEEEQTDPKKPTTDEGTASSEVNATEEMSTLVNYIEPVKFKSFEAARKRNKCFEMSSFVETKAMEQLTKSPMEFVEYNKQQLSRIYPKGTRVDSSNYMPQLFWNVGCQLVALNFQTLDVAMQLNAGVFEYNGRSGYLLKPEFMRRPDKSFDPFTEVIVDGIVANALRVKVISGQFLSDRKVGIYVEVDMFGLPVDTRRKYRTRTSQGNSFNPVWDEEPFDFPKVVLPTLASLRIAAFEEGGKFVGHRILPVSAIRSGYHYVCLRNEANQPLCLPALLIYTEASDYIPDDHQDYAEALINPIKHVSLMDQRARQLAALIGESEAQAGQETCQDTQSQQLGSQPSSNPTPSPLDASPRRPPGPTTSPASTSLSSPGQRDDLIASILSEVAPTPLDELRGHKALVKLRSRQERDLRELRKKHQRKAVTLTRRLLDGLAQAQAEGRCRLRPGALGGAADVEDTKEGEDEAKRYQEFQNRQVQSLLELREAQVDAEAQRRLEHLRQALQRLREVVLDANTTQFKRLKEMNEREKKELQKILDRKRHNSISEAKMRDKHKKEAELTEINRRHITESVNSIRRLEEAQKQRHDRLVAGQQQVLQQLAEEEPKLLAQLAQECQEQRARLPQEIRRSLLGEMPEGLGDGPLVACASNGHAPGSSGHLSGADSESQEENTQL

[9] = Luminescence Cell-Based Dose Response to Identify Activators of 5'UTR Stem-Loop Driven Prion Protein mRNA Translation in H4-C Neuroglioblastoma Cells. [Related pubchem assays: 1829 (Project Summary), 1814 (Primary HTS)]; assay type: functional
[10] = Luminescence Cell-Based Dose Response HTS to Identify Activators of Luciferase Translation or Activity in H4 […] Cells. [Related pubchem assays: 1829 (Project Summary), 1814 (Primary HTS)]; assay type: functional
H4 = experiment: Luminescence Cell-Based Dose Response HTS to Identify Activators of 5'UTR Stem-Loop Driven Prion Protein mRNA Translation in H4 Neuroglioblastoma Cells. [Related pubchem assays: 1829 (Project Summary), 1814 (Primary HTS)]; assay type: functional; conditions: Homo sapiens
[11] = Luminescence Cell-Based Dose Response to Identify Activators of Luciferase Translation or Activity in H4-C Neuroglioblastoma Cells. [Related pubchem assays: 1829 (Project Summary), 1814 (Primary HTS)]; assay type: functional
[12] = Luminescence Cell-Based Dose Confirmation to Identify Activators of 5'UTR Stem-Loop Driven Alpha-Synuclein mRNA Translation in H4 Neuroglioblastoma Cells. [Related pubchem assays: 1829 (Project Summary), 1814 (Primary HTS)]; assay type: functional
Caspase-3 = target: T2, Caspase-3 (Homo sapiens, UniProt P42574); assay type: functional;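 also: Dose-response selectivity test against caspase-3 for candidate inhibitors of sentrin-specific proteases (SENPs)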
T2 sequence (P42574 whole entry): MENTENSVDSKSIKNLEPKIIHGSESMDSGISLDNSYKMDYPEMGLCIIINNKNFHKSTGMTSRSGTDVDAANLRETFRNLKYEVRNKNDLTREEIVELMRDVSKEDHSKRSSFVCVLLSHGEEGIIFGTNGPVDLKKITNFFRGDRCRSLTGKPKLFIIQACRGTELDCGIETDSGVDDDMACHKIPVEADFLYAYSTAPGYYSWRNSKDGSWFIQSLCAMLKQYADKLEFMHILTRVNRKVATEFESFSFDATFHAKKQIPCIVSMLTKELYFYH

[13] = target: T3, Sentrin-specific protease 7 (Homo sapiens, UniProt Q9BQF6); assay type: functional;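 also: Luminescence-based dose-response confirmation of ultra-high-throughput screening hits, measuring inhibition of SENP7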
T3 sequence (Q9BQF6 whole entry): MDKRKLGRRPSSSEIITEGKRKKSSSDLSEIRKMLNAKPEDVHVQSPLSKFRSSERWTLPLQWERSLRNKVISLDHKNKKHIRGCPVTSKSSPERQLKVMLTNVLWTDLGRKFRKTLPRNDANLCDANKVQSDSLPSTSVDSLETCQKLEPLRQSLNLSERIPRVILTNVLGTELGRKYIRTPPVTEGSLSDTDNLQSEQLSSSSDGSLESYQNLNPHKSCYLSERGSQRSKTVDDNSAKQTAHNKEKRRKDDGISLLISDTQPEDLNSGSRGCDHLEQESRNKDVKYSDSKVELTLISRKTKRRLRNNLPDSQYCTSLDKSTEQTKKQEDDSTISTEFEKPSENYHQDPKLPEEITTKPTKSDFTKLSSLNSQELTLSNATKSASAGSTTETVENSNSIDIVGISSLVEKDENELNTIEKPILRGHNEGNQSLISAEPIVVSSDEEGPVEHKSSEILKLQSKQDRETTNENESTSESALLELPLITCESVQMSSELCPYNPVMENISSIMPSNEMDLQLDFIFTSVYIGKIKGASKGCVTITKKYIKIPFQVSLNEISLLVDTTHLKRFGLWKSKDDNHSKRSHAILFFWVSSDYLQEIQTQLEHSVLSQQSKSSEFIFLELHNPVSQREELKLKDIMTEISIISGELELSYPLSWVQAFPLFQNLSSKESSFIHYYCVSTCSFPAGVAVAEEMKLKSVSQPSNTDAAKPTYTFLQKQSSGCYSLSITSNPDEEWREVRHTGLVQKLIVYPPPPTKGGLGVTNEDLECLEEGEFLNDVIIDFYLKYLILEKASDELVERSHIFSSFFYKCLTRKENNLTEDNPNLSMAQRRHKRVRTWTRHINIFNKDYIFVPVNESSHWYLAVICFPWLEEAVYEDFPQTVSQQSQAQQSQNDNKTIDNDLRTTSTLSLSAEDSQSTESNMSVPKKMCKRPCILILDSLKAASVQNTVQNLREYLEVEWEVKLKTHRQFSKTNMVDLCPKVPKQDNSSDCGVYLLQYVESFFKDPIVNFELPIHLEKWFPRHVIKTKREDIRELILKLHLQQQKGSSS

[14] = target: T4, Sentrin-specific protease 6 (Homo sapiens, UniProt Q9GZR1); assay type: functional;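 also: Luminescence-based dose-response confirmatory assay of SENP6 inhibition, following up an ultra-high-throughput screen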
T4 sequence (Q9GZR1 whole entry): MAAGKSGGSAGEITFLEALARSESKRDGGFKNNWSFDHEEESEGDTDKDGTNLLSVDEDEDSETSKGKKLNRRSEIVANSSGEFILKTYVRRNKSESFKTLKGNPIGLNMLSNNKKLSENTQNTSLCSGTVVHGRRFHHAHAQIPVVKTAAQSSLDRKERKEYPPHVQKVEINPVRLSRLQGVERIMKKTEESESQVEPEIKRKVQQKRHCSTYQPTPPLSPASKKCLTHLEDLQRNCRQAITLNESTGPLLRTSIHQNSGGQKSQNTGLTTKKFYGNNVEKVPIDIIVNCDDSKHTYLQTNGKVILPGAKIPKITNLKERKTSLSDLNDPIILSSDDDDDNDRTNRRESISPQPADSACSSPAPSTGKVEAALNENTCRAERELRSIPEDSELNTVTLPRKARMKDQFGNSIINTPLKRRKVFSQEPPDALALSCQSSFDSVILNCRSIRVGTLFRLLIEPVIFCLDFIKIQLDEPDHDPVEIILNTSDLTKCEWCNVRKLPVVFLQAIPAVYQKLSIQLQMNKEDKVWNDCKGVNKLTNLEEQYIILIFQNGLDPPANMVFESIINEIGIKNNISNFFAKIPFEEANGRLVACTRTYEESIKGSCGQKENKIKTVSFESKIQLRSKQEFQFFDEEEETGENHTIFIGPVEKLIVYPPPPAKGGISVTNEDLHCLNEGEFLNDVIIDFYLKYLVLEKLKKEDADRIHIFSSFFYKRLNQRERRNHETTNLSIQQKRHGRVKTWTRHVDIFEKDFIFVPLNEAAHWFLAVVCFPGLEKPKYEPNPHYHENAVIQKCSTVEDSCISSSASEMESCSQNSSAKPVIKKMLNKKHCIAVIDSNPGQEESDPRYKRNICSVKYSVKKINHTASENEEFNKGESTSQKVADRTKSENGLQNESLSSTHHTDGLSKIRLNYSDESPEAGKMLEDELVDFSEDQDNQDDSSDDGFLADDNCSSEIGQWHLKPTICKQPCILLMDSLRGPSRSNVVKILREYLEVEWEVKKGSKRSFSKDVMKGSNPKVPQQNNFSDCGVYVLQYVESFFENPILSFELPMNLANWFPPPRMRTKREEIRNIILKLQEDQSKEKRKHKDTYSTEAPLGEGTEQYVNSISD

[15] = target: T5, Sentrin-specific protease 8 (Homo sapiens, UniProt Q96LD8); assay type: functional;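 also: luminescence read-out of SENP8 inhibition, dose-response confirmation following an ultra-high-throughput screen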
T5 sequence (Q96LD8 whole entry): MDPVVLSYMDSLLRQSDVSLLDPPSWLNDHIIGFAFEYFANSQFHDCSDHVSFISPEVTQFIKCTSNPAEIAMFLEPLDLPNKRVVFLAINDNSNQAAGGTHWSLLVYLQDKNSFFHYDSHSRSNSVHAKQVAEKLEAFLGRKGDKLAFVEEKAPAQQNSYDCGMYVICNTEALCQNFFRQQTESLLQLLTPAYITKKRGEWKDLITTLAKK

[16] = target: T6, Oxysterols receptor LXR-beta (Homo sapiens, UniProt P55055); assay type: functional, cell-based;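 also: agonist activity at LXR measured by a cell-based luminescence readout across a dose range, run as a counterscreen for daf-12 agonists; HEK293 cells with Gal4-LXR fusion and GAL4-driven luciferase reporter; potency for activation of Gal4-LXR reporter so compounds are agonists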
T6 sequence (P55055 whole entry): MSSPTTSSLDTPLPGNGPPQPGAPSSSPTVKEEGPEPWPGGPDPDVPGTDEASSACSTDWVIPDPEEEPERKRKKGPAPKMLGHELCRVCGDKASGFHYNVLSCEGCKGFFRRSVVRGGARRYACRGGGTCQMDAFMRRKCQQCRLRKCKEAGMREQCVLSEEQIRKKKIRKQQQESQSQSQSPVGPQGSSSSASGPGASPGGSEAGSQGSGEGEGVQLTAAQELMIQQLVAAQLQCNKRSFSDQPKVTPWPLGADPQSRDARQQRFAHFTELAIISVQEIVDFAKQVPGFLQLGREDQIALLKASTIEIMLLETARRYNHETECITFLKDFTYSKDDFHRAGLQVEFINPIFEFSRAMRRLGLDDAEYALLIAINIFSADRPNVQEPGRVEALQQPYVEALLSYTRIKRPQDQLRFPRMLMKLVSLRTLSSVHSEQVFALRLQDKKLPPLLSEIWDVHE

Fc1ccc(N=C(S)N2CCCN(c3ccc(C(F)(F)F)cn3)CC2)c(F)c1
AC50 [1]: 3.71 µM (active) | AC50 [2]: 1.09 µM (active) | AC50 [3]: 27 µM (active) | IC50 (Galanin receptor type 3): 0.142 µM (active) | EC50 (cells): > 29.9 µM (inactive) | IC50 [4]: 3.07 µM (active)

C[C@@H]1CN([C@@H](C)CO)C(=O)c2cc(NC(=O)Cc3ccccc3)ccc2O[C@@H](C)CCCCO[C@H]1CN(C)Cc1ccc(C(F)(F)F)cc1
AC50 (Paired box protein Pax-8): 9.1 µM (active) | AC50 [5]: 44.6 µM (active) | AC50 [6]: > 70 µM (inactive)

COCCNCCCOc1ccc(Br)cc1Cl
IC50 [7]: > 123 µM (inactive) | IC50 [8]: > 123 µM (inactive)

Cc1ccc(S(=O)(=O)NC(=NC(S)=Nc2ccccc2)c2ccccc2)cc1
EC50 [9]: 0.308 µM (active) | EC50 [10]: < 0.1 µM (inconclusive) | EC50 (H4): < 0.1 µM (active) | EC50 [11]: 2.54 µM (active) | EC50 [12]: 0.786 µM (active) | IC50 (Caspase-3): 20.4 µM (active) | IC50 [13]: 4.8 µM (active) | IC50 [14]: 14.1 µM (active) | IC50 [15]: 22.5 µM (active) | EC50 [16]: > 67.5 µM (inactive)

From ChEMBL document CHEMBL1201862, “PubChem BioAssay data set” (2004)
